Results reported in PMC12434521, “Characterization of Next-Generation Inhibitors for the Inward-Rectifier Potassium Channel Kir2.1: Discovery of VU6080824” (ACS Medicinal Chemistry Letters, 2025).
Several values for one entry are separate records, joined by “and”; a condition that tells them apart may be missing. Equal entries are not always repeated. Where two headings read alike, the source gives them in different places.

Key:
Assay type in all cases: cell-based
Kir2.2 = target: T1, Kir2.2 (Homo sapiens, UniProt Q14500); assay: Kir2.2 manual patch clamp (MPC)
T1 construct: expressed in transfected cells
T1 sequence (Q14500 1-433): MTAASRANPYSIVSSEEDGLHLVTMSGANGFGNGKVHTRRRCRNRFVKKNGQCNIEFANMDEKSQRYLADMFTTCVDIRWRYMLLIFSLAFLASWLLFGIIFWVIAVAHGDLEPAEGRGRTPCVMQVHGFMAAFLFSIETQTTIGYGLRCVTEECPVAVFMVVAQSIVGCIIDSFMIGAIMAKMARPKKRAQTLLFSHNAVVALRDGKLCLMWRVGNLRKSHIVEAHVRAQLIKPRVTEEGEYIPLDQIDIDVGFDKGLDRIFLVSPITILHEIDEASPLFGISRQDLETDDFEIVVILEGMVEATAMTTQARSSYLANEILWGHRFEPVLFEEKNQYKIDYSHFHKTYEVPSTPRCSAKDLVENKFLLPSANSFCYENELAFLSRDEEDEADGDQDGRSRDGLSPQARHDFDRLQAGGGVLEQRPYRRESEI
Description: (§1) Manual Patch Claim Assay Experimental Conditions
(§2) Whole-cell patch-clamp electrophysiology was used to record K ir2.1 currents from a stably transfected monoclonal T-Rex-HEK-293 cell line with a tetracycline-inducible promoter expressing human Kir2.1, as described previously1 cultured in a 5% CO2 incubator at 37°C. Kir2.1 expression was induced by overnight treatment with 1 µg/mL tetracycline. Cells were dissociated using 0.25% Trypsin-EDTA and seeded onto 12 mm circular coverslips (Electron Microscopy Sciences, PA, USA) for same-day whole-cell patch-clamp recordings. Kir2.1 currents were recorded at room temperature using an AxoPatch 200B amplifier with Clampex 10.7 software (Molecular Devices, USA). The voltage-clamp protocol consisted of a 1-s step to -120 mV from a -80 mV holding potential, followed by a 2-s ramp to +40 mV, repeated every 10 s. Data were sampled at 5 kHz and filtered at 1 kHz. Patch pipettes, pulled from 1.5 mm OD thin-walled capillaries (Warner Instruments, MA, USA) using a Sutter P-1000 puller (Sutter Instrument, CA, USA), had resistances of 2–3 MΩ when filled with intracellular solution containing (mM): 135 KCl, 10 HEPES, 1 EGTA, 2 MgCl2, 2 Na2ATP (pH 7.35, adjusted with KOH). The extracellular solution contained (mM): 135 NaCl, 5 KCl, 2 CaCl2, 1 MgCl2, 5 Glucose, 10 HEPES, 10 Sucrose (pH 7.35, adjusted with NaOH). After establishing stable baseline Kir2.1 currents, cells were perfused with compounds at concentrations of 0.03–30 µM until response saturation (within minutes).
(§3) Recordings concluded with a 2 mM Ba2+ solution to isolate Ba2+-sensitive currents, with compound responses expressed as fractions of this current. Current amplitudes at the -120 mV step were analyzed using Clampfit 11.2 (Molecular Devices). IC50 values were calculated by fitting the Hill equation to concentration-response curves (CRCs) using variable -slope nonlinear regression in GraphPad Prism 10.4 (GraphPad Software).
(§4) MPC experiments for Kir2.2 and Kir2.3 were conducted in an analogous fashion.1

human Kir2.1 [1] = target: T2, human Kir2.1 (Homo sapiens, UniProt P63252); assay: Kir2.1 thallium flux assay; conditions: for Thallium Flux Efficacy (% Inhibition) / Emax: efficacy from 4PL fit, relative to ML133; for Emax: read-out: Thallium Flux Efficacy (% Inhibition)
T2 construct: expressed in transfected cells
T2 sequence (P63252 1-427): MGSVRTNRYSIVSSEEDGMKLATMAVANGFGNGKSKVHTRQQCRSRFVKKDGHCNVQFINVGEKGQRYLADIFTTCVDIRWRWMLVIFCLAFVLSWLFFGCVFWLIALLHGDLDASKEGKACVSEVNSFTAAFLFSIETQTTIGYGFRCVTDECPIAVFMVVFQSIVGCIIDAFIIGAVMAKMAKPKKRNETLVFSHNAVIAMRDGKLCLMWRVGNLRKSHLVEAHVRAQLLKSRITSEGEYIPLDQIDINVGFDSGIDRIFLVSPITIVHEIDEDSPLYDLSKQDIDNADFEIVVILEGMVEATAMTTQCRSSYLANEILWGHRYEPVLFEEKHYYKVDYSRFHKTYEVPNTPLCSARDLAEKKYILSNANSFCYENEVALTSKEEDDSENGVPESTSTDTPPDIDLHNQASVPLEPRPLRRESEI
Description: Thallium Flux Assay Experimental Conditions
The Tl+ flux assays were conducted as previously described with modifications optimized for Kir2.1 cell line as described below.1
Briefly, stable T-REx-HEK-293 cells expressing human K ir2.1 were cultured in DMEM growth medium (Catalog #11965-092, Gibco, Billings, MT) containing 10% heat-inactivated FBS (Catalog #16140, Gibco), 100 U/mL PenStrep, 5 μg/mL Blasticidin S, and 250 μg/mL Hygromycin.
The day prior to the experiment, cells at ~90% confluency were resuspended in plating media, which consisted of the same components as the growth media, except that heat-inactivated FBS was replaced with dialyzed FBS (Catalog #26400, Gibco). Tetracycline was added to the plating media to achieve a final concentration of 1 μg/ml to induce hKir2.1 expression. Cells were then counted and plated at 15,000 cells/well in black-walled, amine- or PDL- coated, 384-well plates at 20 μl/well (Corning, Corning, NY). On the day of experiment, the media was removed from the cell plate and replaced with 20 μl/well of Tl+-sensitive dye loading solution containing 2.5 μg/ml Thallos-AM (Catalog #11000-050, ION Biosciences, San Marcos, TX) in assay buffer using a Multidrop Combi dispenser (Thermo Fisher Scientific, Walkham, MA). Cell plates loaded with dye solution were incubated for 1 hour at room temperature. Following incubation, the cell plate was washed with HBSS assay buffer containing 20 mM HEPES using a BioTek ELx 405 TS plate washer (Agilent, Santa Clara, CA), leaving 20 μl of assay buffer in each well. The cell plate was then transferred to a Panoptic kinetic imaging plate reader (WaveFront Biosciences, Franklin, TN) for imaging at 1 Hz, 482/35 nm excitation and 536/40 nm emission for 10 seconds. Following this, 20 μl/well of HBSS assay buffer containing test compounds at 2-fold over their final concentrations were added and imaging continued for another eight minutes, after which 10 μl/well of chloride-free Tl+ stimulus solution was added (Catalog #11000-050, ION Biosciences). The final Tl2SO4 concentration in cell plate post-Tl+ stimulus solution addition was 0.25 mM. Images were collected for an additional two minutes. A ten-point concentration series from 30 μM to 2 nM with a 1:3 dilution factor was generated using an Echo liquid handler 650 (Labcyte, San Jose, CA). Final DMSO concentration, 0.3% (v/v) in the assay was constant across all compound concentrations.
The initial slopes of the Tl+-induced fluorescence changes were fit to a four-parameter logistic equation using our in-house software Waveguide to determine potency and efficacy values. […]
Bauer, J. A.; Days, E. L.; Lindsley, C. […]

human Kir2.1 [2] = target: T2, human Kir2.1; assay: Kir2.1 manual patch clamp (MPC) assay; conditions: for Manual patch clamp Emax / Emax: % inhibition of Ba2+-sensitive current at highest tested concentration (3–30 μM); for IC50: pH 7.4, -120 mV, normalized to 2 mM Ba2+ block, top concentration 10 μM (ML133 30 μM, 5t 3 μM)
Description: as §1, §2, §3, §4

[3] = T-REx-HEK-293 cells expressing human Kir2.1, 4PL fit, top concentration 30 μM, read-out: Thallium Flux Potency IC50

Kir2.1/Kir2.2 Selectivity (MPC) (Kir2.2) [fold]	Thallium Flux Efficacy (% Inhibition) (human Kir2.1 [1]) [%]	Manual patch clamp Emax (human Kir2.1 [2]; pH 7.4) [%]	IC50 (human Kir2.1 [1]; [3]) [µM]	Emax (human Kir2.1 [1]) [%]	Emax (human Kir2.1 [2]; pH 7.4) [%]	Fold more potent than ML133 in MPC (human Kir2.1 [2]; pH 7.4)	IC50 (human Kir2.1 [2])	IC50 (Kir2.2) [µM]	Kir2.1/Kir2.2 Selectivity (MPC) (Kir2.2; listed as VU6080824)	MPC potency relative to ML133 (human Kir2.1 [2]; pH 7.4)	Thallium flux potency relative to ML133 (human Kir2.1 [1])	IC50 (human Kir2.1 [1]; mean ± SEM over 9 experimental plates in triplicate, read-out: Thallium flux pIC50 (converted)) [µM]	SMILES
			4.9	100	98	3–5 fold	0.48 µM						COc1ccc(CNCc2ccc(-c3cccc(C#N)c3)cc2)cc1 [Compound 5t]
			12.8	106	100	3–5 fold	0.39 µM						COc1ccc(CNCc2cccc(-c3ccccc3)c2)cc1 [Compound 5j]
2.1			5.9	101	100	3–5 fold	0.35 µM	0.75	approximately 2 fold				COc1ccc(CNCc2ccc(-c3cccc(OC)c3)cc2)cc1 [Compound 5s, 1-(3′-Methoxy-[1,1’-biphenyl]-4-yl)-N-(4-methoxybenzyl)methanamine]
			8.2	101	99		1.39 µM			equipotent			COc1ccc(CNCc2ccc(-c3ccccc3)cc2)cc1 [Compound 5k]
			11.2	99	92		3.03 µM				equipotent		COc1ccc(CNCc2ccc3c(c2)OC(F)(F)O3)cc1 [Compound 5h]
			8.1	99	98	3–5 fold	0.3 µM						COc1ccc(CNCc2ccc(-c3cccc(F)c3)cc2)cc1 [Compound 5p]
			10.1	101	99		1.5 µM and 1.51 µM					10.5	COc1ccc(CNCc2cccc3ccccc23)cc1 [ML133, N-(4-methoxybenzyl)-1-(naphthalen-1-yl)methanamine, reference compound]

The remaining lines, values behind:

SMILES	Kir2.1/Kir2.2 Selectivity (MPC) (Kir2.2) [fold]	Thallium Flux Efficacy (% Inhibition) (human Kir2.1 [1]) [%]	Manual patch clamp Emax (human Kir2.1 [2]; pH 7.4) [%]	IC50 (human Kir2.1 [1]; [3]) [µM]	Emax (human Kir2.1 [1]) [%]	Emax (human Kir2.1 [2]; pH 7.4) [%]	Fold more potent than ML133 in MPC (human Kir2.1 [2]; pH 7.4)	IC50 (human Kir2.1 [2])	IC50 (Kir2.2) [µM]	Kir2.1/Kir2.2 Selectivity (MPC) (Kir2.2; listed as VU6080824)	MPC potency relative to ML133 (human Kir2.1 [2]; pH 7.4)	Thallium flux potency relative to ML133 (human Kir2.1 [1])	IC50 (human Kir2.1 [1]; mean ± SEM over 9 experimental plates in triplicate, read-out: Thallium flux pIC50 (converted)) [µM]
[2H]C([2H])([2H])Oc1ccc(CNCc2ccc(-c3cccc(OC)c3)cc2)cc1 [Compound 9]	1.4	100	99										
[2H]C([2H])([2H])Oc1ccc(CNCc2ccc(-c3cccc(OC([2H])([2H])[2H])c3)cc2)cc1 [Compound 13]	3.2	100	99										
[2H]C([2H])([2H])Oc1cccc(-c2ccc(CNCc3ccc(OC)cc3)cc2)c1 [Compound 11]	0.73	100	99										
[2H]C([2H])([2H])Oc1ccc(CNCc2cccc3ccccc23)cc1 [Compound 7]				11.1	102	82		3.94 µM				equipotent	
